Experimental data taken from ChEMBL document CHEMBL5143640, “Diverse Sesquiterpenoids and Polyacetylenes from Atractylodes lancea and Their Anti-Osteoclastogenesis Activity” (J Nat Prod, 2022).

Legend:
BMDM [1] = assay: Anti-osteoclastogensis activity C57BL/6 mouse bone marrow macrophages assessed as inhibition of RANKL-induced osteoclastogenesis by measuring osteoclasts number at 1 to 10 uM and measured after 5 days in presence of M-CSF by TRAP staining based assay; assay type: functional, cell-based; conditions: dose 1-10 µM, time 5.0 day, DDE = dose-dependent effect
[2] = Anti-osteoclastogensis activity C57BL/6 mouse bone marrow macrophages assessed as inhibition of RANKL-induced osteoclastogenesis and measured after 5 days in presence of M-CSF by TRAP staining based assay; assay type: functional, cell-based; conditions: bmdm
BMDM [3] = assay: Anti-osteoclastogensis activity C57BL/6 mouse bone marrow macrophages assessed as inhibition of RANKL-induced osteoclastogenesis by measuring osteoclasts size at 1 to 10 uM and measured after 5 days in presence of M-CSF by TRAP staining based assay; assay type: functional, cell-based; conditions: dose 1-10 µM, time 5.0 day, DDE = dose-dependent effect
BMDM [4] = assay: Cytotoxicity against C57BL/6 mouse bone marrow macrophages assessed as reduction in cell viability at 10 uM incubated for 48 hrs in presence of M-CSF by CCK8 assay; assay type: toxicity, cell-based

Structure (SMILES) | Activity (BMDM [1]) | IC50 [2] [nM] | Activity (BMDM [3]) | Activity (BMDM [4])
OC/C=C/C#CC#C/C=C/c1ccco1 | Dde | 640 | Dde | Non-Toxic
CC(=O)OCCC(/C=C/C=C/C#CC#C/C=C/CO)OC(C)=O (stereo not drawn) | Dde | 1300 | Dde | Non-Toxic
